Source: US20250002455A1, “NEW N-PHENYLPYRROLAMIDE INHIBITORS OF DNA GYRASE AND TOPOISOMERASE IV WITH ANTIBACTERIAL ACTIVITY” (priority 2020, published 2025)
Converted amounts (≈) assume the structure as drawn.

What was measured:
[1] = biological target: T1, E. coli topoisomerase IV (Escherichia coli, UniProt P20083); experiment: biochemical; settings: E. coli topo IV, read-out: RA (residual activity of the enzyme); for remaining activity at 1 µM: 1 μM compound; for remaining activity at 10 µM: 10 μM compound
T1 construct: purchased Inspiralis
Method: Inhibitory activities for compounds of the present invention were determined on E. coli and S. aureus DNA gyrase and topoisomerase IV in an assay from Inspiralis on streptavidin-coated 96-well microtiter plates from Thermo scientific Pierce. […] After washing off the unbound oligonucleotide, the enzyme test was performed. […] Reaction solutions were incubated at 37° C. for 30 min. After that, the TF buffer (50 mM NaOAc with pH 5.0, 50 mM NaCl and 50 mM MgCl2) was added to terminate the enzymatic reaction. After additional incubation for 30 min at rt, during which biotin-oligonucleotide-plasmid triplex was formed, the unbound plasmid was washed off using TF buffer and SybrGOLD in T10 buffer (10 mM Tris HCl with pH 8.0 and 1 mM EDTA) was added. […] Initial screening was done at 100 or 10 nM concentration of inhibitors against E. coli DNA gyrase or 1 μM or 100 nM concentration against S. aureus DNA gyrase and E. coli and S. aureus topo IV. […] GraphPad Prism 6.0 software was used to calculate the IC50 values. The result is given as the average value of three independent measurements. […] Chemoth.

[2] = test system: S. aureus ATCC 29213; experiment: Microbroth dilution MIC (CLSI); assay type: cell-based; settings: Staphylococcus aureus, ATCC29213; S. aureus ATCC 29213; read-out: MIC
Method: (§1) The chemical entities described in the present invention were assessed for their antimicrobial activity using a microbroth dilution assay as recommended by the CLSI (Methods for Dilution Antimicrobial Susceptibility Tests for Bacteria That Grow Aerobically, and Methods for Antimicrobial Susceptibility Testing of Anaerobic Bacteria, Clinical and Laboratory Standards Institute, Document M07-A8, and M11-A8, Wayne, PA 19087, USA, 2012.). Compounds were dissolved by using 100% DMSO. Serial two-fold dilutions of each compound were made by using 100% DMSO as the diluent.
(§2) A library of Gram-negative and Gram-positive microbes and their drug- and multidrug-resistant variants were employed as test organisms. The MIC (minimum inhibitory concentration) was determined as the lowest concentration of an individual drug that lead to no visible growth.

[3] = test system: S. aureus ATCC 43300 (MRSA); experiment: Microbroth dilution MIC (CLSI); assay type: cell-based; settings: Staphylococcus aureus; S. aureus ATCC 43300 (MRSA); read-out: MIC
Method: as §1, §2

[4] = test system: K. pneumoniae ATCC 10031; experiment: Microbroth dilution MIC (CLSI); assay type: cell-based; settings: Klebsiella pneumoniae, ATCC10031; K. pneumoniae ATCC 10031; read-out: MIC
Method: as §1, §2

[5] = test system: A. baumannii ATCC 17978; experiment: Microbroth dilution MIC (CLSI); assay type: cell-based; settings: Acinetobacter baumannii, ATCC17978; A. baumannii ATCC 17978; read-out: MIC
Method: as §1, §2

[6] = test system: E. faecalis ATCC 29212; experiment: Microbroth dilution MIC (CLSI); assay type: cell-based; settings: Enterococcus faecalis, ATCC29212; E. faecalis ATCC 29212; read-out: MIC
Method: as §1, §2

[7] = test system: E. spp. cloacae ATCC 13047; experiment: Microbroth dilution MIC (CLSI); assay type: cell-based; settings: Enterobacter cloacae, ATCC13047; E. spp. cloacae ATCC 13047; read-out: MIC
Method: as §1, §2

[8] = test system: E. coli ATCC 25922; experiment: Microbroth dilution MIC (CLSI); assay type: cell-based; settings: Escherichia coli, ATCC25922; E. coli ATCC 25922; read-out: MIC
Method: as §1, §2

[9] = test system: P. aeruginosa ATCC 27853; experiment: Microbroth dilution MIC (CLSI); assay type: cell-based; settings: Pseudomonas aeruginosa, ATCC27853; P. aeruginosa ATCC 27853; read-out: MIC
Method: as §1, §2

[10] = biological target: T2, E. coli DNA gyrase (Escherichia coli, UniProt P0AES6); experiment: biochemical; settings: E. coli DNA gyrase; read-out: IC50
T2 construct: purchased Inspiralis
Method: Inhibitory activities for compounds of the present invention were determined on E. coli and S. aureus DNA gyrase and topoisomerase IV in an assay from Inspiralis on streptavidin-coated 96-well microtiter plates from Thermo scientific Pierce. […] After washing off the unbound oligonucleotide, the enzyme test was performed. […] Reaction solutions were incubated at 37° C. for 30 min. After that, the TF buffer (50 mM NaOAc with pH 5.0, 50 mM NaCl and 50 mM MgCl2) was added to terminate the enzymatic reaction. After additional incubation for 30 min at rt, during which biotin-oligonucleotide-plasmid triplex was formed, the unbound plasmid was washed off using TF buffer and SybrGOLD in T10 buffer (10 mM Tris HCl with pH 8.0 and 1 mM EDTA) was added. […] GraphPad Prism 6.0 software was used to calculate the IC50 values. The result is given as the average value of three independent measurements. […] Chemoth.

[11] = test system: S. aureus ATCC 700699 (VISA); experiment: Microbroth dilution MIC (CLSI); assay type: cell-based; settings: Staphylococcus aureus; S. aureus ATCC 700699 (VISA); read-out: MIC
Method: as §1, §2

[12] = test system: E. faecium ATCC 700221; experiment: Microbroth dilution MIC (CLSI); assay type: cell-based; settings: Enterococcus faecium, ATCC700221; E. faecium ATCC 700221; read-out: MIC
Method: as §1, §2

T1 sequence (P0AFI2 whole entry): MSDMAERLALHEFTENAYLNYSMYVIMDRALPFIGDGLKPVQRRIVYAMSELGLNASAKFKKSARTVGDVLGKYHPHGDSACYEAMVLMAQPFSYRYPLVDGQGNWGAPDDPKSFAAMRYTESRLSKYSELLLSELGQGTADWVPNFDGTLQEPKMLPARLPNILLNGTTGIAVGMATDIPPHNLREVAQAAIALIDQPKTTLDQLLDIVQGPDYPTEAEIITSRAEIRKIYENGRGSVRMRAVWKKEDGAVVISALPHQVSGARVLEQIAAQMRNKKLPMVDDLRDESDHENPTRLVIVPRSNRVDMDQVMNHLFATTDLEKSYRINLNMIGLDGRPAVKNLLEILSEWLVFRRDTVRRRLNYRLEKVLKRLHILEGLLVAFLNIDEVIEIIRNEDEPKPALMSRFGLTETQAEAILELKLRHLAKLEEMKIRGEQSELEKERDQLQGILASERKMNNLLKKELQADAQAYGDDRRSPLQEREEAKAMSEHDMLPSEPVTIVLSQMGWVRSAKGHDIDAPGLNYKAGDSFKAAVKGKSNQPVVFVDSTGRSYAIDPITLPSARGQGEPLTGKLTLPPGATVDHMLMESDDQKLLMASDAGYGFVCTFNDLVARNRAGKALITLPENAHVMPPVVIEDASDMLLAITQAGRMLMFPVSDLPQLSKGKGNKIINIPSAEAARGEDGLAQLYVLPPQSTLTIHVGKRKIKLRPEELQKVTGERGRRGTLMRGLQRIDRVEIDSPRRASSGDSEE
T1 sequence (P20083 whole entry): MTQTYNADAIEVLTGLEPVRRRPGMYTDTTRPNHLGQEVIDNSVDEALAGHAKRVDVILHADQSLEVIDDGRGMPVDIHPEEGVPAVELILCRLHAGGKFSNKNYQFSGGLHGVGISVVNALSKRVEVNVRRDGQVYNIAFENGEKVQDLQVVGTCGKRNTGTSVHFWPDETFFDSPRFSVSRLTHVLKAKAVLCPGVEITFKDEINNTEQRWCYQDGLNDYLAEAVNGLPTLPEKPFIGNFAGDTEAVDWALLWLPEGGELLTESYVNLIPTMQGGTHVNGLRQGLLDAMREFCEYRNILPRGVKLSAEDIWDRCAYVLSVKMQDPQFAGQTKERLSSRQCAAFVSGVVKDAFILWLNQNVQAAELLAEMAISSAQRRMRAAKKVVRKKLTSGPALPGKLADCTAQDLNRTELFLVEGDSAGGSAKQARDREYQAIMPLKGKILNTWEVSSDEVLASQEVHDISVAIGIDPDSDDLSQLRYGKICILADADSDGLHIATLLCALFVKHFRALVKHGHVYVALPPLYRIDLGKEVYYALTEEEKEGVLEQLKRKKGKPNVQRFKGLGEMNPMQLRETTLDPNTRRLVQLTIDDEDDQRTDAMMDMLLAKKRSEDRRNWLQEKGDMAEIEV

| SMILES | remaining activity at 1 µM [1] [%] | remaining activity at 10 µM [1] [%] | MIC [2] [µg/mL] | MIC [3] [µg/mL] | MIC [4] [µg/mL] | MIC [5] [µg/mL] | MIC [6] [µg/mL] | MIC [7] [µg/mL] | MIC [8] [µg/mL] | MIC [9] [µg/mL] | IC50 [10] [nM] | MIC [11] [µg/mL] | MIC [12] [µg/mL] |
| --- | --- | --- | --- | --- | --- | --- | --- | --- | --- | --- | --- | --- | --- |
| Cc1[nH]c(C(=O)Nc2ccc(-c3n[nH]c(=O)o3)cc2N2CCOC(C)C2)c(Cl)c1Cl (stereo not shown) [Example 43, 3,4-Dichloro-5-methyl-N-(2-(2-methylmorpholino)-4-(5-oxo-4,5-dihydro-1,3,4-oxadiazol-2-yl)phenyl)-1H-pyrrole-2-carboxamide] | 103 | 102 | ≥ 64 | ≥ 64 | ≥ 64 | ≥ 64 | 1 (≈ 2.21 µM) | ≥ 64 | ≥ 64 | ≥ 64 | 53.5 | – | – |
| Cc1[nH]c(C(=O)Nc2ccc(-c3n[nH]c(=O)o3)cc2OCC2CCCNC2)c(Cl)c1Cl.Cl (stereo not shown) [Example 28, 3-((2-(3,4-Dichloro-5-methyl-1H-pyrrole-2-carboxamido)-5-(5-oxo-4,5-dihydro-1,3,4-oxadiazol-2-yl)phenoxy)methyl)piperidin-1-ium chloride] | – | – | > 64 | > 64 | 0.5 | > 64 | > 64 | > 64 | > 64 | > 64 | 0.75 | > 64 | > 64 |
| Cc1[nH]c(C(=O)Nc2ccc(-n3nn[nH]c3=O)cc2N2CCN(c3ccccc3)CC2)c(Cl)c1Cl [Example 24, 3,4-Dichloro-5-methyl-N-(4-(5-oxo-4,5-dihydro-1H-tetrazol-1-yl)-2-(4-phenylpiperazin-1-yl)phenyl)-1H-pyrrole-2-carboxamide] | – | – | ≥ 32 | ≥ 32 | ≥ 32 | ≥ 32 | 0.5 (≈ 0.974 µM) | ≥ 32 | ≥ 32 | ≥ 32 | 7.8 | 0.5 (≈ 0.974 µM) | 0.5 (≈ 0.974 µM) |
| Cc1[nH]c(C(=O)Nc2ccc(-c3n[nH]c(=O)o3)cc2N2CCOCC2)c(Cl)c1Cl [Example 42, 3,4-Dichloro-5-methyl-N-(2-morpholino-4-(5-oxo-4,5-dihydro-1,3,4-oxadiazol-2-yl)phenyl)-1H-pyrrole-2-carboxamide] | 66 | 54 | 0.25 (≈ 0.57 µM) | 0.25 (≈ 0.57 µM) | ≥ 64 | ≥ 64 | 0.125 (≈ 0.285 µM) | ≥ 64 | ≥ 64 | ≥ 64 | 82.2 | – | – |
| Cc1[nH]c(C(=O)Nc2ccc(C(=O)NS(C)(=O)=O)cc2N2CCOCC2)c(Cl)c1Cl [Example 45, 3,4-Dichloro-5-methyl-N-(4-((methylsulfonyl)carbamoyl)-2-morpholinophenyl)-1H-pyrrole-2-carboxamide] | – | – | – | – | – | – | – | – | – | – | 243 | – | – |
| Cc1[nH]c(C(=O)Nc2ccc(-c3noc(=O)[nH]3)cc2N2CCCC2)c(Cl)c1Cl [Example 6, 3,4-Dichloro-5-methyl-N-(4-(5-oxo-4,5-dihydro-1,2,4-oxadiazol-3-yl)-2-(pyrrolidin-1-yl)phenyl)-1H-pyrrole-2-carboxamide] | – | – | > 64 | 0.5 (≈ 1.18 µM) | > 64 | > 64 | < 0.0312 | > 64 | > 64 | > 64 | 12.6 | < 0.0313 | 0.0625 (≈ 0.148 µM) |
| Cc1[nH]c(C(=O)Nc2ccc(-c3n[nH]c(=O)o3)cc2N2CCNCC2)c(Cl)c1Cl.Cl [Example 41, 4-(2-(3,4-Dichloro-5-methyl-1H-pyrrole-2-carboxamido)-5-(5-oxo-4,5-dihydro-1,3,4-oxadiazol-2-yl)phenyl)piperazin-1-ium chloride] | 71 | 48 | 2 | 4 | 0.25 | ≥ 64 | 0.5 | ≥ 64 | ≥ 64 | ≥ 64 | 17.9 | – | – |
